Results: a melting point compilation (Tetko et al.; mined from patent text by program, amines drawn as free bases though some values may be those of a salt)

| SMILES | melting point [°C] |
| --- | --- |
| CCOC(=O)CSc1nccc(NCc2ccc(Cl)cc2)n1 | 175 to 178 |
| CS(=O)(=O)OCCC(CCOS(C)(=O)=O)C(F)(F)F | 40 to 45 |
| CC1=C(C2C=CN(C(=O)OCC(Cl)(Cl)Cl)N=C2)SCC(=O)N1 (configuration not stated) | 156 to 157 |
| CCCC(O)c1cc(-c2ccc(C(F)(F)F)n(C)c2=O)c(F)cc1Cl (configuration not stated) | 120 to 122 |
| CCOC(=O)c1cnc(Cl)cc1NCc1ccc(OC)c(Cl)c1 | 116 to 118 |
| N=C(N)N1CCC(CCC(=O)O)CC1 | > 275 |
| CON=C(C(=O)OC)c1cccc(O)c1 | 39.5 to 40.5 |
| CS(=O)(=O)Nc1ccc2c(c1)C(=O)C(Br)CC2 (configuration not stated) | 87 to 92 |
| CC(=O)OC/C(=C(\C(=O)N(C)CC(C)(C)SN=O)c1ccc(F)cc1)c1ccc(S(C)(=O)=O)cc1 | 37 to 38 |
| CCCCCCCCCCCCCCCCCCCCCCOC(=O)P(=O)(OC)OC | 60 to 61 |
| CC(C)[C@H](NC(=O)OCc1ccccn1)C(=O)N[C@@H](Cc1ccccc1)[C@@H](O)C[C@H](Cc1ccccc1)NC(=O)OCc1cncs1 | 176 to 177 |
| CC(C)/[N+]([O-])=C/c1ccccc1O | 36 to 39 |
| CCCCCc1cnc(-c2ccc(F)cc2)nc1 | 28.6 |
| O=C1c2ccc(F)cc2C(=O)N1c1ccc(Cl)cc1F | 122 to 123 |
| Cc1ccc(NC(=O)N(C)Cc2cccc3c2C(=O)N(C2CCC(=O)NC2=O)C3=O)cc1C (configuration not stated) | 202 to 204 |
| CCOP(=O)(CNC(=O)OC(C)(C)C)CNC(=O)OC(C)(C)C | 118 to 120 |

| SMILES | melting point [°C] |
| --- | --- |
| CCCCCCCN(CCC(C)(C)CCSc1nc(-c2ccccc2)c(-c2ccccc2)[nH]1)C(=O)Nc1ccc(F)cc1F | 138 to 139 |
| Cc1ccsc1C=C1C(=O)COC1=O | 164 to 166 |
| Cc1nc(C(F)(F)F)ccc1C(=O)C1=C(Cl)C2CCC(C2)C1=O (configuration not stated) | 137 to 138 |
| COc1ccc(Cl)cc1NC(=O)[C@H]1[C@H](c2ccc(S(N)(=O)=O)c(C)c2)C1(C)C (relative stereo) | 118 to 121 |
| CC(=O)Nc1ccc(-c2cccc(-n3c(-c4cccnc4N)nc4cc(-c5cccc(NC(C)=O)c5)c(-c5cccnc5)nc43)c2)cc1 | 166 to 168 |
| CC(Oc1ccc([N+](=O)[O-])cc1)c1nnc(N=C=O)s1 (configuration not stated) | 215 to 221 |
| CC(C)(C)c1cc(CCc2ccccc2NC(=O)NC23CC4CC(CC(C4)C2)C3)cc(C(C)(C)C)c1O | 197 to 199 |
| CCOC(=O)C[C@H]1O[C@H](c2ccc(O)cc2OC)c2cc(Cl)ccc2N(CC(C)(C)C)C1=O (relative stereo) | 197 to 199 |
| COc1ccc2c(c1)CNc1cc(Cl)ccc1O2 | 111 to 113 |
| COc1ccc2nc(Cl)c(C=NO)cc2c1 | 195 |
| N#Cc1cc(C#N)cc(Oc2c(C3CC3)n[nH]c2C2CC2)c1 | 168 to 170 |
| CCCCCC(CC(=O)Nc1cc(C(N)=O)ccc1C(C)(C)C)c1cccc(OC)c1OC (configuration not stated) | 89 to 90 |
| COc1c(C(=O)O)ccc(Cl)c1SC | 121 to 123 |
| CC(C)(C)Oc1ccc(OC(=O)N2CCOCC2)cc1 | 129 to 130 |
| Cn1c(Nc2c(Cl)ccc(CNC(=O)C(C)(C)C)c2Cl)nc2cc(C(=O)N[C@H]3CC[C@H](C(F)(F)F)CC3)c(N3CCC(C(F)(F)F)CC3)nc21 | 185 to 186 |
| CC1(C)OC(=O)C(=Cc2ccc(Br)s2)C1=O | 173 to 175 |

The next lines start with the values.

| melting point [°C] | SMILES |
| --- | --- |
| 107 to 114 | CC(C)(C)NC(=O)[C@@H]1CCCN1C(=O)[C@@H](O)[C@H](Cc1ccccc1)NC(=O)[C@H](CC(N)=O)NC(=O)COc1ccccc1N |
| 224 to 226 | Cc1nc(NC(=O)c2cccnc2)sc1C(=O)NCc1ccccc1 |
| 179 to 181 | O=C(O)Cc1ccc(-c2onc3ccccc23)cc1 |
| 271 to 273 | COC(=O)c1cc(-c2cc(-c3ccccc3O)nc(NC(=O)c3cccs3)c2C#N)ccc1OC |
| 149 to 151 | COc1ccc2c(c1)N(c1ccccc1F)C(=O)C2(C)NC(=O)OCc1ccccc1 (configuration not stated) |
| 106 to 108 | CN(C)CCn1c(=O)[nH]c2ccccc21 |
| 140 to 142 | Nc1cc(-c2ccccc2CCN2CCN(c3nccn3-c3ccccc3)CC2)ccn1 |
| 123 to 126 | O=C(O)CNC(=O)c1cccc2c(-c3ccccc3)c([N+](=O)[O-])oc12 |
| 201 to 203 | O=C(Cc1cccc(C(F)(F)F)c1)c1c(O)c2cccnc2n(-c2ccccc2)c1=O |
| 249 | O=C(Nc1cccc2c1C(=O)c1c-2n[nH]c1-c1ccc(N2CCC(N3CCOCC3)CC2)cc1)NN1CCOCC1 |
| 156 to 157 | CN1CCN(CCn2c3ccccc3c(=O)c3ccccc32)CC1 |
| 230 | O=C(CCl)NC1(c2ccccc2Cl)C(=O)Nc2ccc(Cl)cc21 (configuration not stated) |
| 76 to 81 | Cn1c(CCCOc2ccc(CC3SC(=O)N(C(c4ccccc4)(c4ccccc4)c4ccccc4)C3=O)cc2)nc2cccnc21 (configuration not stated) |
| 69.1 to 70.4 | OC1CCCCC1N1CCC(Cc2ccc(Cl)cc2)CC1 (configuration not stated) |
| 136 | CCOC(=O)CC(C(=O)OCC)N1CCN(CC2CN(c3ccc(C(=N)NC(=O)c4ccccc4)cc3)C(=O)O2)CC1 (configuration not stated) |
| 168 | Cc1cccc(N2CCN(CCc3ccc(NC(=O)NCCCCl)cc3)CC2)c1 |
| 123 to 124 | CCN(CC)CCCNc1nc2ccccc2n(-c2ccc(Cl)cc2)c1=O |
| 179 to 181 | Cn1cc(OC(=O)c2ccccc2)c(=O)c2cccc(F)c21 |

| melting point [°C] | SMILES |
| --- | --- |
| 177 to 178 | CCOC(=O)c1ccc(-c2cnc3c(c2)N(C(=O)c2ccccc2)CCN3)cc1 |
| 133 to 134 | N#CN=C(Nc1ccc(Cl)nc1)Oc1ccccc1 |
| 164 to 166 | O=C(OCCc1ccccc1)c1ccc2c(O)c(O)ccc2c1 |
| 188 to 190 | CC(C)n1nc(-c2sc(C(=O)NCc3ccccn3)nc2-c2cccc(F)c2)ccc1=O |
| 181 to 183 | CC12CCC3c4ccc(C(=O)O)cc4CCC3C1CCC2C(=O)CCc1ccccc1 (configuration not stated) |
| 238 | CC1Sc2c(C(=O)O)c(=O)c3cc(F)c(N4CCN(C)CC4)c(F)c3n21 (configuration not stated) |
| 119 to 120 | CC(C)(C)c1cc(CCc2ccccc2NC(=O)NC2CCN(Cc3cc(F)cc(F)c3)CC2)cc(C(C)(C)C)c1O |
| 79 to 82 | Nc1ccc(-c2cn(CCF)nn2)cc1 |
| 142 | O[C@H]1COC(c2ccc(Cl)cc2)=N[C@@H]1c1ccccc1 (racemic) |
| 186 to 188 | O=C(O)COc1ccc(-c2cc(O)c(Sc3ccccc3)c(=O)o2)cc1 |
| 140 to 141 | CCN1CCN(CC)c2cc(N)ccc2C1=O |
| 160 to 161 | CN(Cc1ccccc1)C(=O)Cn1c(=O)n(C)c2nc(-c3ccccc3)ncc21 |
| 113 | COc1ccc(N=C(C#Cc2ccccc2)N2CCN(Cc3ccc(C)cc3)CC2)cc1Cl |
| 140 to 141 | O=C1c2ccccc2C(=O)c2c(NCCN3CCCCC3)ccc(NCCN3CCCCC3)c21 |
| 71 to 72 | CCOCc1cc2ccccc2oc1=Nc1ccccc1 |
| 126 | C1=C(c2cccc(CNCCOc3cccc4ccoc34)c2)CCC1 |
| 114 | CC(C)(C)OC(=O)CN(C(=O)CNC(=O)c1ccc2ccccc2n1)c1ccccc1 |
